Where two headings read alike, the source gives them in different places.
Assays:
human GnRH receptor = biological target: T1, human GnRH receptor (Homo sapiens, UniProt P30968); assay: Radioligand binding, 125I-GnRH-A displacement, membranes of HEK 293 cells with human GnRH receptor
T1 construct: expressed in transfected cells; host or cells: HEK 293 (hGnRH-R/293, from Dr. Stuart Sealfon)
T1 sequence (P30968 1-328): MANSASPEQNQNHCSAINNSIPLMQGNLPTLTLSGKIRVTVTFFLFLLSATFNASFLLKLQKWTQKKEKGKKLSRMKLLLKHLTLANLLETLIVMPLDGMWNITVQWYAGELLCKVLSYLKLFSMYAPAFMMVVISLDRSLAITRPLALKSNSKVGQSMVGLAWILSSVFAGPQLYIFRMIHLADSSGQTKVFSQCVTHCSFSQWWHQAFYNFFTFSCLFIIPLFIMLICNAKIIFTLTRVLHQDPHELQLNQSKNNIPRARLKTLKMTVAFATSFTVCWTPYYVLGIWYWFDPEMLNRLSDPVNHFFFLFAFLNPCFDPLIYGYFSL
Outline: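 After filtration and PBS washes, bound radioactivity was counted by scintillation and IC50 derived. Identical conditions applied for non-human receptors.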

mouse GnRH receptor = biological target: T2, mouse GnRH receptor (Mus musculus, UniProt Q01776); assay: Radioligand binding, 125I-GnRH-A, 293 cells expressing mouse GnRH receptors; conditions: read-out: mGnRH IC50
T2 construct: expressed in transfected cells; host or cells: 293 cells
T2 sequence (Q01776 1-327): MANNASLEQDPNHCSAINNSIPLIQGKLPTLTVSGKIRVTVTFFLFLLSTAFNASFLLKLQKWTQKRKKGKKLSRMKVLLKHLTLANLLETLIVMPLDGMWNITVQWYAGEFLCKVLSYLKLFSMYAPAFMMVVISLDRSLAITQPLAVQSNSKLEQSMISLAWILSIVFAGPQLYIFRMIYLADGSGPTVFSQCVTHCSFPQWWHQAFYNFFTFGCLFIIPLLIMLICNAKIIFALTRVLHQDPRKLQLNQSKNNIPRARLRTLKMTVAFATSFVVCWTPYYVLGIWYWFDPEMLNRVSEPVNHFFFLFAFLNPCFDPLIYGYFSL
Outline: (§1)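 Bound label captured on 0.1% polyethyleneimine-treated GF/C filters, washed three times with PBS, counted. IC50 derived; identical set-up for every species.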

[1] = Pharmacokinetic studies / bioavailability in rats; format: in vivo, rat; conditions: rat male
[2] = Metabolism rate, pmol/min/mg at 1 μM, human; format: in vitro ADME; conditions: 1 μM compound
[3] = Metabolism rate, pmol/min/mg at 1 μM, rat male; format: in vitro ADME; conditions: 1 μM compound
NPY Y1 = biological target: T3, NPY Y1 (Homo sapiens, UniProt P25929); assay: Selectivity: NPY Y1
T3 sequence (P25929 1-384): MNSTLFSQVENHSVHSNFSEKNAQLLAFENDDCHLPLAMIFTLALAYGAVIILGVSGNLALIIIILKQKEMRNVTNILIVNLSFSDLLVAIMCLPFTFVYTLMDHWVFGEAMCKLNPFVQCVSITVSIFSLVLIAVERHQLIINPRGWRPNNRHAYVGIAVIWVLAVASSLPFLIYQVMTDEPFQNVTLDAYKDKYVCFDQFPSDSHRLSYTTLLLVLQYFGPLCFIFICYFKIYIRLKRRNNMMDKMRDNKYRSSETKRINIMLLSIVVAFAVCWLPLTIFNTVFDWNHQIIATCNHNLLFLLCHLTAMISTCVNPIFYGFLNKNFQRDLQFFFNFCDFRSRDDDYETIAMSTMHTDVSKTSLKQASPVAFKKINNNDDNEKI

rat GnRH receptor = biological target: T4, rat GnRH receptor (Rattus norvegicus, UniProt P30969); assay: Radioligand binding, 125I-GnRH-A, rat pituitary membranes; design: membranes were prepared from rat pituitary; from tissue; host or cells: rat pituitary; conditions: read-out: rGnRH IC50
T4 sequence (P30969 1-327): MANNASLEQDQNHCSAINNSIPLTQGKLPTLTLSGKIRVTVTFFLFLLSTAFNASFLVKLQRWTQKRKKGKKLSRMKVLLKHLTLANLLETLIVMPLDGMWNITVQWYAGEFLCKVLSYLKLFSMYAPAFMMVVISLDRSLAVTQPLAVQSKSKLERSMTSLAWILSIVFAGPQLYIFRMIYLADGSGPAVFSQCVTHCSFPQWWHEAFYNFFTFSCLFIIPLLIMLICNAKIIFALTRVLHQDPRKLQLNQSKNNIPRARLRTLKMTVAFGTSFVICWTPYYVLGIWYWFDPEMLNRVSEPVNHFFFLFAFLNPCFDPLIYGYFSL
Outline: as §1

[4] = male, rat, plasma, po, 20 mg/kg, p.o. 20 mg/kg, vehicle per footnote (DMSO/cremophor/saline)

`Cc1cc2c(cc1Cc1ccc(C(=O)NCc3nc4ccccc4[nH]3)o1)C(C)(C)CCC2(C)C` [Compound 48] showed an IC50 (human GnRH receptor; read-out: hGnRH IC50) of 50 nM, an IC50 (human GnRH receptor; second value marked * (mostly in parentheses), asterisk not explained, read-out: hGnRH IC50, value marked *) of 40 nM and an IC50 (mouse GnRH receptor) of 10 nM. For the same molecule, the half-life ([1]; male, rat, plasma, iv, 10 mg/kg) was 1.1 h, the Cmax [1, 4] was 330 nM and the Tmax [1, 4] was 1.5 h. The Fp.o. ([1]; p.o. 20 mg/kg, vehicle per footnote (DMSO/cremophor/saline)) was 4% (20 mg/kg)^1, the “Human pmol/min/mg 1 μM” value [2] was 289 pmol/min/mg and the “Rat male pmol/min/mg 1 μM” value [3] was 2869 pmol/min/mg. The IC50 (NPY Y1) was > 10000 nM and the IC50 (rat GnRH receptor) was 6 nM.

From US7101878B1 (Agouron Pharmaceuticals, Inc., priority 1998, dated 2006)
